Assay results from patent publication US8580763B2, “2, 6-dinitrogen-containing substituted purine derivatives, the preparation and uses thereof” (Zhanggui Wu, priority 2007, dated 2013).
pIC50: −log10 of the molar value.

tested on: non-small cell lung cancer; experiment: anticancer activity in vitro (SRB, MTT), non-small cell lung cancer; type: cell-based; details: action time about 72 h
Protocol: (§1) Antitumor activity tests in vitro and in vivo are carried out to the parital compounds prepared from the above examples. Wherein the method of SRB, MTT is used in vitro, and the action time is about 72 h. Inhibitory effects of the compounds on the growth of mouse Conlon26 cancer are shown in Table 2, inhibitory effects of the compounds on the growth of mouse S180 sarcoma are shown in Table 3.

SMILES	pIC50
COc1cccc2c1C(=O)c1c(O)c3c(c(O)c1C2=O)C[C@@](O)(C(=O)CO)C[C@@H]3O[C@H]1C[C@H](N)[C@H](O)[C@H](C)O1 [ADR, adriamycin, reference compound]	7.30
c1cnc2ccc(Nc3nc(N4CCCC4)c4nc[nH]c4n3)cc2c1 [Compound IV]	5.64
C=CCNc1nc(Nc2ccc3ncccc3c2)nc2[nH]cnc12 [Compound I]	5.44
CNc1nc(Nc2ccc3ncccc3c2)nc2[nH]cnc12 [Compound VII]	5.18
C=CCN(CC=C)c1nc(Nc2ccc3ncccc3c2)nc2[nH]cnc12 [Compound XIII]	5.77
c1cnc2ccc(Nc3nc(N4CCCCC4)c4nc[nH]c4n3)cc2c1 [Compound XIV]	5.88
CCN1CCN(c2nc(Nc3ccc4ncccc4c3)nc3[nH]cnc23)CC1 [Compound XV]	5.47
COc1cc(Nc2nc(NC3CC3)c3nc[nH]c3n2)cc2cccnc12 [Compound XXIII]	4.88
FC(F)(F)c1cc(Nc2nc(NC3CC3)c3nc[nH]c3n2)cc2cccnc12 [Compound XXIV]	4.93

tested on: colon cancer HT-29; experiment: anticancer activity in vitro (SRB, MTT), colon cancer HT-29; type: cell-based; details: Homo sapiens, action time about 72 h
Protocol: as §1

SMILES	pIC50
COc1cccc2c1C(=O)c1c(O)c3c(c(O)c1C2=O)C[C@@](O)(C(=O)CO)C[C@@H]3O[C@H]1C[C@H](N)[C@H](O)[C@H](C)O1 [ADR, adriamycin, reference compound]	6.42
c1cnc2ccc(Nc3nc(N4CCCC4)c4nc[nH]c4n3)cc2c1 [Compound IV]	6.42
C=CCNc1nc(Nc2ccc3ncccc3c2)nc2[nH]cnc12 [Compound I]	5.06
CNc1nc(Nc2ccc3ncccc3c2)nc2[nH]cnc12 [Compound VII]	5.40
C=CCN(CC=C)c1nc(Nc2ccc3ncccc3c2)nc2[nH]cnc12 [Compound XIII]	5.71
c1cnc2ccc(Nc3nc(N4CCCCC4)c4nc[nH]c4n3)cc2c1 [Compound XIV]	5.65
CCN1CCN(c2nc(Nc3ccc4ncccc4c3)nc3[nH]cnc23)CC1 [Compound XV]	5.37
COc1cc(Nc2nc(NC3CC3)c3nc[nH]c3n2)cc2cccnc12 [Compound XXIII]	5.24
FC(F)(F)c1cc(Nc2nc(NC3CC3)c3nc[nH]c3n2)cc2cccnc12 [Compound XXIV]	< 4.00

tested on: human liver cancer Bel-7402; experiment: anticancer activity in vitro (SRB, MTT), human liver cancer Bel-7402; type: cell-based; details: action time about 72 h
Protocol: as §1

SMILES	pIC50
COc1cccc2c1C(=O)c1c(O)c3c(c(O)c1C2=O)C[C@@](O)(C(=O)CO)C[C@@H]3O[C@H]1C[C@H](N)[C@H](O)[C@H](C)O1 [ADR, adriamycin, reference compound]	7.70
c1cnc2ccc(Nc3nc(N4CCCC4)c4nc[nH]c4n3)cc2c1 [Compound IV]	6.17
C=CCNc1nc(Nc2ccc3ncccc3c2)nc2[nH]cnc12 [Compound I]	5.80
CNc1nc(Nc2ccc3ncccc3c2)nc2[nH]cnc12 [Compound VII]	6.64
C=CCN(CC=C)c1nc(Nc2ccc3ncccc3c2)nc2[nH]cnc12 [Compound XIII]	5.46
c1cnc2ccc(Nc3nc(N4CCCCC4)c4nc[nH]c4n3)cc2c1 [Compound XIV]	5.34
CCN1CCN(c2nc(Nc3ccc4ncccc4c3)nc3[nH]cnc23)CC1 [Compound XV]	5.26
COc1cc(Nc2nc(NC3CC3)c3nc[nH]c3n2)cc2cccnc12 [Compound XXIII]	5.23
FC(F)(F)c1cc(Nc2nc(NC3CC3)c3nc[nH]c3n2)cc2cccnc12 [Compound XXIV]	< 4.00

tested on: lymph cancer Ramos; experiment: anticancer activity in vitro (SRB, MTT), lymph cancer Ramos; type: cell-based; details: Homo sapiens, action time about 72 h
Protocol: as §1

SMILES	pIC50
COc1cccc2c1C(=O)c1c(O)c3c(c(O)c1C2=O)C[C@@](O)(C(=O)CO)C[C@@H]3O[C@H]1C[C@H](N)[C@H](O)[C@H](C)O1 [ADR, adriamycin, reference compound]	6.72
c1cnc2ccc(Nc3nc(N4CCCC4)c4nc[nH]c4n3)cc2c1 [Compound IV]	6.17
C=CCNc1nc(Nc2ccc3ncccc3c2)nc2[nH]cnc12 [Compound I]	5.24
CNc1nc(Nc2ccc3ncccc3c2)nc2[nH]cnc12 [Compound VII]	5.90
C=CCN(CC=C)c1nc(Nc2ccc3ncccc3c2)nc2[nH]cnc12 [Compound XIII]	5.52
c1cnc2ccc(Nc3nc(N4CCCCC4)c4nc[nH]c4n3)cc2c1 [Compound XIV]	5.53
CCN1CCN(c2nc(Nc3ccc4ncccc4c3)nc3[nH]cnc23)CC1 [Compound XV]	5.54
COc1cc(Nc2nc(NC3CC3)c3nc[nH]c3n2)cc2cccnc12 [Compound XXIII]	5.58
FC(F)(F)c1cc(Nc2nc(NC3CC3)c3nc[nH]c3n2)cc2cccnc12 [Compound XXIV]	< 4.00

tested on: mouse Colon26 cancer; experiment: inhibitory effects on the growth of mouse Colon26 cancer in vivo; details: 100 mg/kg dosage
Protocol: as §1

SMILES	inhibitory effects on mouse Colon26 cancer (in words)
C=CCNc1nc(Nc2ccc3ncccc3c2)nc2[nH]cnc12 [Compound I]	better inhibitory effects

same assay, conditions: Colon26 mice, 100 mg/kg p.o.

SMILES	End body weight [g]	Inhibition rate [%]	Tumor removed body weight [g]	Tumor weight [g]
c1cnc2ccc(Nc3nc(N4CCCC4)c4nc[nH]c4n3)cc2c1 [Compound IV]	19.32	33.31	18.10	1.22
C=CCNc1nc(Nc2ccc3ncccc3c2)nc2[nH]cnc12 [Compound I]	18.15	62.25	17.46	0.69

same assay, conditions: Colon26 mice, 100 mg/kg p.o.; baseline

SMILES	Initial body weight [g]
c1cnc2ccc(Nc3nc(N4CCCC4)c4nc[nH]c4n3)cc2c1 [Compound IV]	20.09
C=CCNc1nc(Nc2ccc3ncccc3c2)nc2[nH]cnc12 [Compound I]	19.47

same assay, conditions: Colon26 mice, 150 mg/kg p.o.

SMILES	End body weight [g]	Inhibition rate [%]	Tumor removed body weight [g]	Tumor weight [g]
c1cnc2ccc(Nc3nc(N4CCCC4)c4nc[nH]c4n3)cc2c1 [Compound IV]	18.41	54.45	17.57	0.83
C=CCNc1nc(Nc2ccc3ncccc3c2)nc2[nH]cnc12 [Compound I]	17.96	76.52	17.26	0.43

same assay, conditions: Colon26 mice, 150 mg/kg p.o.; baseline

SMILES	Initial body weight [g]
c1cnc2ccc(Nc3nc(N4CCCC4)c4nc[nH]c4n3)cc2c1 [Compound IV]	20.10
C=CCNc1nc(Nc2ccc3ncccc3c2)nc2[nH]cnc12 [Compound I]	21.10

tested on: mouse S180 sarcoma; experiment: inhibitory effects on the growth of mouse S180 sarcoma in vivo; details: 100 mg/kg dosage
Protocol: as §1

SMILES	inhibitory effects on mouse S180 sarcoma (in words)
C=CCNc1nc(Nc2ccc3ncccc3c2)nc2[nH]cnc12 [Compound I]	better inhibitory effects

same assay, conditions: S180 mice, 100 mg/kg p.o.

SMILES	End body weight [g]	Inhibition rate [%]	Tumor removed body weight [g]	Tumor weight [g]
c1cnc2ccc(Nc3nc(N4CCCC4)c4nc[nH]c4n3)cc2c1 [Compound IV]	20.77	31.95	19.22	1.55
C=CCNc1nc(Nc2ccc3ncccc3c2)nc2[nH]cnc12 [Compound I]	18.32	68.93	17.61	0.71

same assay, conditions: S180 mice, 100 mg/kg p.o.; baseline

SMILES	Initial body weight [g]
c1cnc2ccc(Nc3nc(N4CCCC4)c4nc[nH]c4n3)cc2c1 [Compound IV]	18.99
C=CCNc1nc(Nc2ccc3ncccc3c2)nc2[nH]cnc12 [Compound I]	19.74

same assay, conditions: S180 mice, 200 mg/kg p.o.

SMILES	End body weight [g]	Inhibition rate [%]	Tumor removed body weight [g]	Tumor weight [g]
c1cnc2ccc(Nc3nc(N4CCCC4)c4nc[nH]c4n3)cc2c1 [Compound IV]	19.12	55.37	18.10	1.02
C=CCNc1nc(Nc2ccc3ncccc3c2)nc2[nH]cnc12 [Compound I]	16.04	70.21	15.36	0.68

same assay, conditions: S180 mice, 200 mg/kg p.o.; baseline

SMILES	Initial body weight [g]
c1cnc2ccc(Nc3nc(N4CCCC4)c4nc[nH]c4n3)cc2c1 [Compound IV]	19.49
C=CCNc1nc(Nc2ccc3ncccc3c2)nc2[nH]cnc12 [Compound I]	18.97

tested on: four different cancer cells; experiment: antitumor activity in vitro, summary over the four cancer cells of Table 1; type: cell-based; details: summary of Table 1
Protocol: as §1
Compared with compound I, compound XX has better antitumor effects.

SMILES	antitumor activity to four different cancer cells (in words)
c1cnc2ccc(Nc3nc(N4CCCC4)c4nc[nH]c4n3)cc2c1 [Compound IV]	the best
C=CCNc1nc(Nc2ccc3ncccc3c2)nc2[nH]cnc12 [Compound I]	higher antitumor activity
CNc1nc(Nc2ccc3ncccc3c2)nc2[nH]cnc12 [Compound VII]	higher antitumor activity
C=CCN(CC=C)c1nc(Nc2ccc3ncccc3c2)nc2[nH]cnc12 [Compound XIII]	higher antitumor activity
c1cnc2ccc(Nc3nc(N4CCCCC4)c4nc[nH]c4n3)cc2c1 [Compound XIV]	higher antitumor activity
CCN1CCN(c2nc(Nc3ccc4ncccc4c3)nc3[nH]cnc23)CC1 [Compound XV]	higher antitumor activity
